Laboratory results taken from patent US12497396B2, “Nitrogen-containing heterocyclic derivatives, method therefor and application therefor as inhibitors of KRAS G12C for the treatment of cancers” (SHANGHAI HANSOH BIOMEDICAL CO., LTD., priority 2019, dated 2025).

Key:
[1] = Plasma protein binding rate, mouse plasma; assay type: in vitro ADME; conditions: 37° C.
Method: The embodiment compound was prepared into a 1 mM solution A with DMSO.
Solution A was added to the plasma solution and prepared into a 5 μM solution B.
• 1) 200 μL of solution B was added into the membrane. • 2) 350 μL of PBS was added to the outside of the membrane. • 3) Incubating in a 37° C. water bath for 6 hours. • 4) The samples were processed for dilution and detected by mass spectrometry.
• Instrument: Shimadzu LC-20 AD; • Chromatographic column: phenomenex Gemiu® C18 (50*4.6 mm, 5 μM particle size); • Mobile phase: A: Acetonitrile, B: 0.1% formic acid solution 0-0.5 min: 5% A→90% A, 2.0-2.1 min: 90% A→5% A; flow rate: 0.8 mL/min; running time: 5.0 min; injection volume: 5 μL.
(§1) • Instrument: API4000 Liquid Chromatography-Mass Spectrometry, AB, USA; • the ion source was electrospray ionization source (ESI); • the temperature of dry gas (N2) was 500° C.; • electrospray voltage was 5500V; • the detection method was positive ion detection; • the scanning mode was selective response monitoring (MRM); the scanning time was 0.1 s.

hERG potassium channel = biological target: T1, hERG potassium channel (Homo sapiens, UniProt Q12809); assay: hERG potassium channel inhibitory activity (Qpatch, CHO-hERG cells); assay type: cell-based; conditions: inhibition of hERG current, multiple concentrations
T1 construct: expressed in transfected cells; host or cells: CHO-hERG cells
T1 sequence (Q12809 whole entry): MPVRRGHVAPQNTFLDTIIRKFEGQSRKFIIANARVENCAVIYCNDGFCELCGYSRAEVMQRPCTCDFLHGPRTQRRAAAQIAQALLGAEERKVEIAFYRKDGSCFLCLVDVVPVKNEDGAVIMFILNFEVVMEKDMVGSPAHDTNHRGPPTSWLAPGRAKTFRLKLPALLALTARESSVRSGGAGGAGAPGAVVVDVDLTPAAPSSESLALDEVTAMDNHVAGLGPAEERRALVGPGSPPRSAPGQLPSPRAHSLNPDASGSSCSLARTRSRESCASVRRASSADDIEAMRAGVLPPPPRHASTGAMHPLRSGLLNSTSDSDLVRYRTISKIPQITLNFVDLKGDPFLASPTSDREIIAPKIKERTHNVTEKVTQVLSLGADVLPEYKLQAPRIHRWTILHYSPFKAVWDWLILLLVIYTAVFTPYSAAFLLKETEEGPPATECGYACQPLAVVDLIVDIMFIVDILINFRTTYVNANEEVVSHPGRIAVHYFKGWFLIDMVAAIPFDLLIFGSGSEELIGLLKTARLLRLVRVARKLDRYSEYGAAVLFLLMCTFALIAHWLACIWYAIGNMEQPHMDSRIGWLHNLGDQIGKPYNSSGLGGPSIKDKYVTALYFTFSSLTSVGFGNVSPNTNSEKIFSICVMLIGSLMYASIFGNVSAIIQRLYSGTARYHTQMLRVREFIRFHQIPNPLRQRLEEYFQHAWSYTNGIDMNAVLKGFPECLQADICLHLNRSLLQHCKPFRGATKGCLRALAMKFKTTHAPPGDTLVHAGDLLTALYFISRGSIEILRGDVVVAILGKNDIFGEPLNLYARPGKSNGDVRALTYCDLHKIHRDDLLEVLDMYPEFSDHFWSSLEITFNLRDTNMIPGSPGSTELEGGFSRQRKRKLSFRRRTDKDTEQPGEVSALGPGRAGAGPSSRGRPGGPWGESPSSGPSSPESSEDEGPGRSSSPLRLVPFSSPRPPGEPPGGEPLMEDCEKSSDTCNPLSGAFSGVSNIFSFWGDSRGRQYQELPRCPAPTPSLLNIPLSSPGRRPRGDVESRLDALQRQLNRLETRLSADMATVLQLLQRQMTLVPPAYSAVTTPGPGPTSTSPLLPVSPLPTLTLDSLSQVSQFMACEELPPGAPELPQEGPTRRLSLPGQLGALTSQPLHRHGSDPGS
Method: 7.1.1 CHO-hERG cells were cultured in a 175 cm^2 flask, when the cell density reached 60-80%, the culture medium was removed, the cells were washed with 7 mL PBS, and then digested with 3 mL Detachin.
7.1.2 After complete digestion, 7 mL culture medium was added to neutralize, then the mixture was centrifuged, the supernatant was aspirated, and then 5 mL culture medium was added to re-suspend, ensuring 2-5×10^6/mL of cell density.
The process of single cell high impedance sealing and whole cell mode formation were all automatically completed by Qpatch instrument, after obtaining the whole cell recording mode, the cells were clamped at −80 mV, before giving a 5-second +40 mV depolarization stimulus, a 50 millisecond −50 mV prevoltage was given first, and then repolarized to −50 mV for 5 seconds, then returned to −80 mV. This voltage stimulation was applied every 15 seconds and recorded for 2 minutes before giving extracellular fluid recordings for 5 minutes, and then the administration process was started, the compound concentration was given from the lowest test concentration, each test concentration was given for 2.5 minutes, and the positive control compound 0.1 μM of Cisapride was given after all concentrations were continuously given. At least 3 cells (n≥3) were tested at each concentration.
7.4.1 20 mM of compound mother liquor was diluted with extracellular fluid, 5 μL of 20 mM compound mother liquor was added into 2495 μL of extracellular fluid and diluted 500-fold to 40 μM, and then the final concentration to be tested was obtained by sequential 3-fold serial dilutions in extracellular solution containing 0.2% DMSO.
7.4.2 The highest test concentration was 40 μM, in a total of 6 concentrations of 40, 13.33, 4.44, 1.48, 0.49 and 0.16 μM respectively.
7.4.3 The content of DMSO in the final test concentration was not more than 0.2%, and this concentration of DMSO had no effect on hERG potassium channel.
The experimental data were analyzed by XLFit software.

in vitro = in vitro ADME; conditions: for half-life at 0.5 μM: plasma
Method: Animal or human whole blood was collected, then the blood was put into a test tube containing anticoagulant, centrifuged at 3500 rpm for 10 min, and the upper layer of pale yellow plasma was collected. • 2), 10 μM of tested compound (m/M/V=C)
The compound was weighed, the stock solution was prepared with DMSO and the working solution was prepared with 100 mM phosphate buffer. • 3), 10 μM of positive control (1) Propantheline (Propantheline Mr=449.4 Da)
• 1) 285 μL of plasma and 15 μL of 10 μM compound (tested compound) were added in turn in a 96-well plate, and incubated at 37° C. • 2) 40 μL was taken out at 0, 15, 30, 60, 90, 120 min, respectively, and 160 μL of acetonitrile termination solution containing internal standard was added. • 3) After centrifugation (3500 rpm, 10 min), 50 μL of supernatant was taken out, and then diluted with 50 μL DDH2O and injected to LC-MS/MS.
• Instrument: Shimadzu LC-20 AD • Chromatographic column: phenomenex Gemiu® C18 (50*4.6 mm, 5 μM particle size); • mobile phase: A: acetonitrile, B: 0.1% formic acid solution […], 2.0-2.1 min: 90% A→5% A; flow rate: 0.8 mL/min; running time: 5.0 min; injection volume: 5 μL.
as §1, with “(MRM). •” for “(MRM);”

SMILES | fraction unbound at 6 h, 5 μM [1] | IC50 (hERG potassium channel) [µM] | Residual rate (%) 0 min (in vitro; human, 0.5 μM) [%] | Residual rate (%) 15 min (in vitro; human, 0.5 μM) [%] | Residual rate (%) 30 min (in vitro; human, 0.5 μM) [%] | Residual rate (%) 60 min (in vitro; human, 0.5 μM) [%] | Residual rate (%) 120 min (in vitro; human, 0.5 μM) [%] | half-life at 0.5 μM (in vitro; human) [h] | Residual rate (%) 0 min (in vitro; mouse plasma, 37° C.) [%] | Residual rate (%) 15 min (in vitro; mouse plasma, 37° C.) [%] | Residual rate (%) 30 min (in vitro; mouse plasma, 37° C.) [%] | Residual rate (%) 60 min (in vitro; mouse plasma, 37° C.) [%] | Residual rate (%) 120 min (in vitro; mouse plasma, 37° C.) [%] | half-life at 0.5 μM (in vitro; mouse) [h] | Residual rate (%) 0 min (in vitro; mouse, 0.5 μM) [%] | Residual rate (%) 15 min (in vitro; mouse, 0.5 μM) [%] | Residual rate (%) 30 min (in vitro; mouse, 0.5 μM) [%] | Residual rate (%) 60 min (in vitro; mouse, 0.5 μM) [%] | Residual rate (%) 120 min (in vitro; mouse, 0.5 μM) [%]
C=CC(=O)N1C[C@H](C)N(c2nc(=O)n(-c3c(SC)ccnc3C(C)C)c3nc(-c4c(O)cccc4F)c(F)cc23)C[C@H]1C (single isomer, unassigned) [Embodiment 114-1] | 0.116 | > 30 |  |  |  |  |  |  |  |  |  |  |  |  |  |  |  |  | 
C=CC(=O)N1C[C@H](C)N(c2nc(=O)n(-c3c(SC)ccnc3C(C)C)c3nc(-c4c(O)cccc4F)c(Cl)cc23)C[C@H]1C (single isomer, unassigned) [Embodiment 166-1] | 0.037 | > 30 | 100.00 | 99.15 | 94.74 | 89.14 | 78.85 | 5.64 | 100.00 | 105.42 | 100.02 | 99.12 | 85.55 | 7.75 |  |  |  |  | 
C=CC(=O)N1C[C@H](C)N(c2nc(=O)n(-c3c(SC)ccnc3C(C)C)c3nc(-c4c(N)ccc(Cl)c4F)c(Cl)cc23)C[C@H]1C (single isomer, unassigned) [Embodiment 165-1] | 0.061 | > 30 | 100.00 | 102.34 | 100.28 | 90.27 | 87.22 | 8.35 |  |  |  |  |  | 16.9 | 100.00 | 100.58 | 99.52 | 99.64 | 92.32
